Values quoted from earlier work in patent US20110213558A1, “METHOD FOR PREDICTING ACTIVATION ENERGY USING AN ATOMIC FINGERPRINT DESCRIPTOR OR AN ATOMIC DESCRIPTOR” (Bioinformatics & Molecular Design Research Center, priority 2008, published 2011).
Where two headings read alike, the source gives them in different places.

Tests used:
cytochrome P450 [1] = details: in vitro
cytochrome P450 [2] = details: in vitro; remark: listed apart in the source

| Experimental metabolic rate (cytochrome P450 [1]; atom # 1) | Experimental metabolic rate (cytochrome P450 [1]; atom # 2) | Experimental metabolic rate (cytochrome P450 [1]; atom # 3) | Structure (SMILES) | Experimental metabolic rate (cytochrome P450 [2]; atom # 2) | Experimental metabolic rate (cytochrome P450 [2]; atom # 3) | Experimental metabolic rate (cytochrome P450 [2]; atom # 4) |
| --- | --- | --- | --- | --- | --- | --- |
| 16.0 | 84.0 | – | Cc1ccc(CCl)cc1 [1-chloromethyl-4-methyl-benzene] | – | – | – |
| – | – | – | Clc1ccccc1 [Chlorobenzene] | 17-19 | 5-9 | 71-79 |
| 0.2 | 99.8 | – | CCc1ccccc1 [Ethylbenzene] | – | – | – |
| 4.5 | 49 | 46.5 | CCCCCC [Hexane] | – | – | – |
| – | – | – | COc1ccccc1 [Methoxybenzene] | 15-24 | 1-3 | 62-75 |
| 2.5 | 97.5 | – | CCCCCCCC [Octane] | – | – | – |
